19 compounds from patent US20260159520A1, “HETEROBIFUNCTIONAL COMPOUNDS AND METHODS OF TREATING DISEASE” (Halda Therapeutics OpCo, Inc., priority 2022, published 2026) can be followed below.

The GI50 is the concentration at which growth is held to half of that of the control.

Type in all cases: cell-based
Assay [1] deals with T-Rex 293 cell line SC3 cells having increased expression of androgen receptor protein. As to the kind of experiment: Cellular growth inhibition, T-Rex 293 SC3 cells with doxycycline (increased androgen receptor expression). To be noted: with 10 ng/mL doxycycline (increased androgen receptor), 72 hours, CellTiter-Glo 2.0. The procedure, abridged: (§1)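 Growth inhibition is measured in an inducible AR-expressing T-Rex 293 clone, SC3, cultured with or without 10 ng/mL doxycycline in hormone-depleted medium. Test compounds are applied for 72 hours. GI50 values derive from CellTiter-Glo 2.0 signal fitted by four-parameter regression.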
Background: ATP-based viability assays read luminescence as a measure of living cells.

In assay [2] the test system is T-Rex 293 cell line SC3 cells lacking increased expression of androgen receptor protein. Briefly: Cellular growth inhibition, T-Rex 293 SC3 cells without doxycycline. Conditions: not exposed to doxycycline, 72 hours, CellTiter-Glo 2.0. The procedure, abridged:
as §1

The subject of a further assay is T47D cells. Briefly: Cellular growth inhibition assay for T47D cells. To be noted: Homo sapiens, 72 hours, CellTiter-Glo 2.0. In short, it runs like this:
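Luminescence from CellTiter-Glo 2.0 after 72 h of compound exposure gives the viability signal. Cells grew in insulin-supplemented (0.2 units/mL) DMEM with 10% FBS and were treated one day after seeding at 0.5% DMSO. GI50 values come from four-parameter nonlinear regression.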

In a further assay the test system is VCaP cells. As to the kind of experiment: Cellular growth inhibition assay for VCaP cells. To be noted: Homo sapiens, 72 hours, CellTiter-Glo 2.0.

On to `CCc1cnn2c(NCc3ccc(OCCCN4CCN(CC5CCN(c6ccc(C(=O)N[C@H]7C(C)(C)[C@H](Oc8ccc(C#N)c(Cl)c8)C7(C)C)cn6)CC5)CC4)nc3)cc(N3CCCC[C@@H]3CCO)nc12` [Compound I-55, N-((1r,3r)-3-(3-chloro-4-cyanophenoxy)-2,2,4,4-tetramethylcyclobutyl)-6-(4-((4-(3-((5-(((3-ethyl-5-((R)-2-(2-hydroxyethyl)piperidin-1-yl)pyrazolo[1,5-a]pyrimidin-7-yl)amino)methyl)pyridin-2-yl)oxy)propyl)piperazin-1-yl)methyl)piperidin-1-yl)nicotinamide], for which the GI50 in assay [1] is under 0.1 µM; in assay [2] it was 0.1 to 1 µM; in the assay with T47D cells, under 0.5 µM; with VCaP cells it was under 0.1 µM.

For `CCc1cnn2c(NCc3ccc(N4CCC(CN5CCC6CN(c7ncc(C(=O)N[C@H]8C(C)(C)[C@H](Oc9ccc(C#N)c(Cl)c9)C8(C)C)cn7)CCC6C5)CC4)nc3)cc(N3CCCC[C@H]3CCO)nc12` (stereo partly shown) [Compound I-71], the GI50 in assay [1] was under 0.1 µM; in assay [2], over 3.5 µM; in the assay with T47D cells, 1.5 to 3 µM; in the assay with VCaP cells it was 1 to 3.5 µM.

Turning to `CC(C)n1cc(-c2ccnc3[nH]c(C4CCN(CCN5CCN(CC6CCN(c7ncc(C(=O)NC8C(C)(C)C(Oc9ccc(C#N)c(Cl)c9)C8(C)C)cn7)CC6)CC5)CC4)cc23)ccc1=O` (stereo not shown) [Compound I-74, N-[3-(3-chloro-4-cyano-phenoxy)-2,2,4,4-tetramethyl-cyclobutyl]-2-[4-[[4-[2-[4-[4-(1-isopropyl-6-oxo-3-pyridyl)-1H-pyrrolo [2,3-b]pyridin-2-yl]-1-piperidyl]ethyl]piperazin-1-yl]methyl]-1-piperidyl]pyrimidine-5-carboxamide], the GI50 was under 0.1 µM in assay [1], 0.1 to 1 µM in assay [2], under 0.5 µM in the assay on T47D cells and under 0.1 µM in the assay with VCaP cells.

With `CCc1cnn2c(NCc3ccc(OCC4CCN(CC5CCN(c6ncc(C(=O)N[C@H]7C(C)(C)[C@H](Oc8ccc(C#N)c(Cl)c8)C7(C)C)cn6)CC5)CC4)nc3)cc(N3CCCC[C@H]3CCO)nc12` [Compound I-51], the GI50 in assay [1] is under 0.1 µM; in assay [2] it was 0.1 to 1 µM; with T47D cells it was under 0.5 µM; in the assay on VCaP cells, under 0.1 µM.

Take `CCc1cnn2c(NCc3ccc(OCCCN4CCC(C5CN(c6ncc(C(=O)N[C@H]7C(C)(C)[C@H](Oc8ccc(C#N)c(Cl)c8)C7(C)C)cn6)C5)CC4)nc3)cc(N3CCCC[C@H]3CCO)nc12` [Compound I-61]: the GI50 in assay [1] is under 0.1 µM; in assay [2], 0.1 to 1 µM; in the assay on T47D cells, under 0.5 µM; in the assay on VCaP cells, under 0.1 µM.

In the case of `Cc1ncc(-c2nc(Nc3ccc(C(=O)N4CC[C@H](N(C)CCOCCOCCOCCOCCOC5CCN(c6ncc(C(=O)N[C@H]7C(C)(C)[C@H](Oc8ccc(C#N)c(Cl)c8)C7(C)C)cn6)CC5)C4)cc3)ncc2F)n1C(C)C` [Compound I-97], the GI50 in assay [1] fell in the range of 1 to 3.5 µM; in assay [2], 1 to 3.5 µM; with T47D cells, 1.5 to 3 µM; in the assay on VCaP cells, 1 to 3.5 µM.

Take `Cc1ncc(-c2nc(Nc3ccc(C(=O)N4CC[C@H](N(C)CCOCCOCCOC5CCN(c6ncc(C(=O)N[C@H]7C(C)(C)[C@H](Oc8ccc(C#N)c(Cl)c8)C7(C)C)cn6)CC5)C4)cc3)ncc2F)n1C(C)C` [Compound I-96]: the GI50 in assay [1] was 0.1 to 1 µM; in assay [2], 1 to 3.5 µM; in the assay on T47D cells it was 1.5 to 3 µM; in the assay on VCaP cells, 1 to 3.5 µM.

Regarding `CCc1cnn2c(NCc3ccc(COCCN4CCN(CC5CCN(c6ncc(C(=O)N[C@H]7C(C)(C)[C@H](Oc8ccc(C#N)c(Cl)c8)C7(C)C)cn6)CC5)CC4)nc3)cc(N3CCCC[C@H]3CCO)nc12` [Compound I-42], the GI50 is under 0.1 µM in assay [1], 0.1 to 1 µM in assay [2], under 0.5 µM in the assay on T47D cells and under 0.1 µM in the assay on VCaP cells.

Regarding `CCc1cnn2c(NCc3ccc(OC4CCN(CC5CCN(c6ncc(C(=O)N[C@H]7C(C)(C)[C@H](Oc8ccc(C#N)c(Cl)c8)C7(C)C)cn6)CC5)CC4)nc3)cc(N3CCCC[C@H]3CCO)nc12` [Compound I-46], the GI50 was under 0.1 µM in assay [1], 0.1 to 1 µM in assay [2], under 0.5 µM in the assay on T47D cells and 0.1 to 1 µM in the assay with VCaP cells.

`CC1(C)[C@H](NC(=O)c2cnc(N3CCC(CN4CCN(CCN5C/C=C/CCOc6cccc(c6)-c6ccnc(n6)Nc6cccc(c6)C5)CC4)CC3)nc2)C(C)(C)[C@H]1Oc1ccc(C#N)c(Cl)c1` [Compound I-94]: the GI50 in assay [1] is 0.1 to 1 µM; in assay [2], 1 to 3.5 µM; with T47D cells, over 3 µM; in the assay on VCaP cells it was over 3.5 µM.

For the compound `CCc1cnn2c(NCc3ccc(N4CC(OCCN5CC6CN(c7ncc(C(=O)N[C@H]8C(C)(C)[C@H](Oc9ccc(C#N)c(Cl)c9)C8(C)C)cn7)CC6C5)C4)nc3)cc(N3CCCC[C@H]3CCO)nc12` (stereo partly shown) [Compound I-72], the GI50 in assay [1] is 0.1 to 1 µM; in assay [2], 0.1 to 1 µM; in the assay with T47D cells it was 1.5 to 3 µM; in the assay with VCaP cells it was 0.1 to 1 µM.

On to `CCc1cnn2c(NCc3ccc(OCCOCCOCCOC4CCN(c5ncc(C(=O)N[C@H]6C(C)(C)[C@H](Oc7ccc(C#N)c(Cl)c7)C6(C)C)cn5)CC4)nc3)cc(N3CCCC[C@H]3CCO)nc12` [Compound I-8], for which the GI50 in assay [1] is under 0.1 µM; in assay [2], 0.1 to 1 µM; in the assay with T47D cells, under 0.5 µM; in the assay on VCaP cells, under 0.1 µM.

Regarding `CCc1cnn2c(NCc3ccc(OCCN4CCN(CC5CCN(c6ncc(C(=O)N[C@H]7C(C)(C)[C@H](Oc8ccc(C#N)c(Cl)c8)C7(C)C)cn6)CC5)CC4)nc3)cc(N3CCCC[C@H]3CCO)nc12` [Compound I-41], the GI50 in assay [1] was under 0.1 µM; in assay [2], 0.1 to 1 µM; in the assay on T47D cells, under 0.5 µM; with VCaP cells it was under 0.1 µM.

Take `CCc1cnn2c(NCc3ccc(OCCCN4CCN(CC5CCN(c6ccc(C(=O)N[C@H]7C(C)(C)[C@H](Oc8ccc(C#N)c(Cl)c8)C7(C)C)cc6)CC5)CC4)nc3)cc(N3CCCC[C@@H]3CCO)nc12` [II-1, N-((1r,3r)-3-(3-chloro-4-cyanophenoxy)-2,2,4,4-tetramethylcyclobutyl)-4-(4-((4-(3-((5-(((3-ethyl-5-((R)-2-(2-hydroxyethyl)piperidin-1-yl)pyrazolo[1,5-a]pyrimidin-7-yl)amino)methyl)pyridin-2-yl)oxy)propyl)piperazin-1-yl)methyl)piperidin-1-yl)benzamide]: the GI50 was under 0.1 µM in assay [1], 0.1 to 1 µM in assay [2], under 0.5 µM in the assay with T47D cells and under 0.1 µM in the assay with VCaP cells.

On to `Cc1ncc(-c2nc(Nc3ccc(C(=O)N4CC[C@H](N(C)CCOC5CCN(c6ncc(C(=O)N[C@H]7C(C)(C)[C@H](Oc8ccc(C#N)c(Cl)c8)C7(C)C)cn6)CC5)C4)cc3)ncc2F)n1C(C)C` [Compound I-95, N-[3-(3-chloro-4-cyano-phenoxy)-2,2,4,4-tetramethyl-cyclobutyl]-2-[4-[2-[[(3S)-1-[4-[[5-fluoro-4-(3-isopropyl-2-methyl-imidazol-4-yl)pyrimidin-2-yl]amino]benzoyl]pyrrolidin-3-yl]-methyl-amino]ethoxy]-1-piperidyl]pyrimidine-5-carboxamide], for which the GI50 in assay [1] fell in the range of 1 to 3.5 µM; in assay [2], 1 to 3.5 µM; with T47D cells it was 0.5 to 1.5 µM; in the assay with VCaP cells it was 1 to 3.5 µM.

Regarding `CCc1cnn2c(NCc3ccc(OCCN4CCN(CC5CCN(c6ncc(C(=O)N[C@H]7C(C)(C)[C@H](Oc8ccc(C#N)c(Cl)c8)C7(C)C)cn6)CC5)CC4)nc3)cc(-c3ccccc3)nc12` [Compound I-47, N-((1r,3r)-3-(3-chloro-4-cyanophenoxy)-2,2,4,4-tetramethylcyclobutyl)-2-(4-((4-(2-((5-(((3-ethyl-5-phenylpyrazolo[1,5-a]pyrimidin-7-yl)amino)methyl)pyridin-2-yl)oxy)ethyl)piperazin-1-yl)methyl)piperidin-1-yl)pyrimidine-5-carboxamide], the GI50 is 0.1 to 1 µM in assay [1], over 3.5 µM in assay [2], over 3 µM with T47D cells and over 3.5 µM with VCaP cells.

Regarding `CCc1cnn2c(NCc3ccc(N4CCC(N5CCN(C6CN(c7ncc(C(=O)N[C@H]8C(C)(C)[C@H](Oc9ccc(C#N)c(Cl)c9)C8(C)C)cn7)C6)CC5)CC4)nc3)cc(N3CCCC[C@H]3CCO)nc12` [Compound I-86], the GI50 was under 0.1 µM in assay [1], under 0.1 µM in assay [2], under 0.5 µM in the assay on T47D cells and under 0.1 µM with VCaP cells.

As for `CCc1cnn2c(NCc3ccc(OCCOC4CCN(c5ncc(C(=O)N[C@H]6C(C)(C)[C@H](Oc7ccc(C#N)c(Cl)c7)C6(C)C)cn5)CC4)nc3)cc(N3CCCC[C@H]3CCO)nc12` [Compound I-7, N-((1r,3r)-3-(3-chloro-4-cyanophenoxy)-2,2,4,4-tetramethylcyclobutyl)-2-(4-(2-((5-(((3-ethyl-5-((S)-2-(2-hydroxyethyl)piperidin-1-yl)pyrazolo[1,5-a]pyrimidin-7-yl)amino)methyl)pyridin-2-yl)oxy)ethoxy)piperidin-1-yl)pyrimidine-5-carboxamide], the GI50 in assay [1] was over 3.5 µM; in assay [2], over 3.5 µM; in the assay with T47D cells it was over 3 µM; with VCaP cells, 1 to 3.5 µM.

For `CCc1cnn2c(NCc3ccc(OCCCN4CCN(C5CN(c6ncc(C(=O)N[C@H]7C(C)(C)[C@H](Oc8ccc(C#N)c(Cl)c8)C7(C)C)cn6)C5)CC4)nc3)cc(N3CCCC[C@H]3CCO)nc12` [Compound I-60], the GI50 in assay [1] is under 0.1 µM; in assay [2] it was under 0.1 µM; in the assay with T47D cells, under 0.5 µM; with VCaP cells it was under 0.1 µM.
